Assay results as given in patent US8680133B2, “Alkyl indole-3-carbinol-derived antitumor agents” (The Ohio State University Research Foundation, priority 2009, dated 2014).

Columns and labels:
PC-3 xenograft tumor = PC-3 xenograft tumor growth in nude mice, oral gavage; format: in vivo; conditions: 25 and 50 mg/kg per day by oral gavage, 49-day treatment; in words
Description: FIG. 2 provides three graphs (A-C) showing the in vivo effects of OSU-A9M (C) versus OSU-A9 (A) and OSU-A9 F (B), each at 25 and 50 mg/kg per day by oral gavage, on suppressing PC-3 xenograft tumor growth in nude mice (n=6).
The efficacy studies were therefore repeated with OSU-A9M and OSU-A9F, following 42 days and 49 days treatment, respectively, versus OSU-A9 with 49-day treatment.
In all three treatments, the body weights of drug-treated mice were not affected. No signs of overt toxicity were observed.

[1] = test system: PC-3 prostate cancer cells; experiment: MTT assay of PC-3 cell viability; format: cell-based; conditions: MTT assay, 24, 48 and 72 h; comparison in words
Description: Each data point represents means±S.D. (n=6). The activity of OSU-A9M versus its parent compound A9 ([1-(3′-nitro-4′-chlorobenzenesulfonyl)-1H-indol-3-yl]-methanol) and its fluorinated counterpart OSU-A9F ([1-(4-Chloro-3-nitro-benzenesulfonyl)-5-fluoro-1H-indol-3-yl])-methanol in suppressing the cell viability of PC-3 prostate cancer cells was compared using the MTT [3-(4,5-dimethylthiazol-2-yl)-2,5-diphenyl-2H-tetrazolium bromide] assay. Cancer cells and PrECs were grown in 5% FBS-supplemented RPMI 1640 medium or 5% FBS-supplemented prostate epithelial growth medium, respectively, in 96-well, flat-bottomed plates for 24 h, and then exposed to various concentrations of test agents in the same medium for the indicated time intervals. Controls received DMSO vehicle at a concentration equal to that in drug-treated cells. At the end of the treatment, the medium was removed, replaced by 200 μL of 0.5 mg/mL of MTT in the same medium, and cells were incubated in the CO2 incubator at 37° C. for 2 h. Supernatants were removed from the wells, and the reduced MTT dye was solubilized in 200 μL/well DMSO. Absorbance at 570 nm was determined on a plate reader.

Row | Compound | Tumor growth suppression in the PC-3 model (PC-3 xenograft tumor) | In vitro potency against the viability of PC-3 cells [1]
1 | O=[N+]([O-])c1cc(S(=O)(=O)n2cc(CO)c3ccccc32)ccc1Cl [OSU-A9, [1-(3′-nitro-4′-chlorobenzenesulfonyl)-1H-indol-3-yl]-methanol, reference compound] | significant tumor growth suppression | 
2 | O=[N+]([O-])c1cc(S(=O)(=O)n2cc(CO)c3cc(F)ccc32)ccc1Cl [OSU-A9F, reference compound] |  | greater than or similar to that of OSU-A9
